Measurements published in the NIST ThermoML archive (doi:10.1021/je800930v).

How the values were obtained:
[1] = 101 kPa, Liquid
[2] = xn = mol fraction of the nth substance listed; settings: 101 kPa, Liquid

O=C(O)C1CC1 [cyclopropanecarboxylic acid]
[1]
Settings	mass density [kg/m3]	viscosity [mPa·s]
298.15 K	1082.92	3.306
308.15 K	1072.97	2.603
318.15 K	1063.04	2.102
328.15 K	1053.12	1.739
338.15 K	1043.2	1.459

O=C(O)C1CC1 [cyclopropanecarboxylic acid] + CO
[2]
Settings	mass density, 298.15 K [kg/m3]	mass density, 308.15 K [kg/m3]	mass density, 318.15 K [kg/m3]	mass density, 328.15 K [kg/m3]	viscosity, 298.15 K [mPa·s]	viscosity, 308.15 K [mPa·s]	viscosity, 318.15 K [mPa·s]	viscosity, 328.15 K [mPa·s]
x1 = 0.1	846.5	837.02	827.45	817.74	0.773	0.651	0.572	0.499
x1 = 0.2	895.02	885.53	875.84	866.23	1.052	0.886	0.753	0.645
x1 = 0.3	935.16	925.62	916	906.25	1.392	1.151	0.965	0.816
x1 = 0.3999	968.42	958.83	949.18	939.42	1.778	1.451	1.199	1
x1 = 0.4994	996.21	986.56	976.86	967.07	2.189	1.765	1.44	1.191
x1 = 0.5989	1019.49	1009.79	1000.06	990.24	2.557	2.029	1.641	1.349
x1 = 0.7001	1039.41	1029.65	1019.87	1010.04	2.887	2.227	1.825	1.494
x1 = 0.8001	1056.17	1046.35	1036.53	1026.65	3.139	2.449	1.963	1.604
x1 = 0.9	1070.57	1060.68	1050.81	1040.92	3.298	2.553	2.047	1.678
x1 = 1	1082.92	1072.97	1063.04	1053.12	3.306	2.603	2.102	1.739

CCCCO [butan-1-ol]
[1]
Settings	mass density [kg/m3]	viscosity [mPa·s]
298.15 K	805.8	2.588
308.15 K	798.08	1.991
318.15 K	790.22	1.555
328.15 K	782.17	1.228
338.15 K	773.88	0.981

CCCO [propan-1-ol] + O=C(O)C1CC1
[2], x2 = 0
Settings	mass density [kg/m3]	viscosity [mPa·s]
298.15 K	799.6	1.955
308.15 K	791.49	1.538
318.15 K	783.22	1.224
328.15 K	774.73	0.986
338.15 K	765.98	0.801

O=C(O)C1CC1 [cyclopropanecarboxylic acid] + CCCCO
[2]
Settings	mass density, 298.15 K [kg/m3]	mass density, 308.15 K [kg/m3]	mass density, 318.15 K [kg/m3]	mass density, 328.15 K [kg/m3]	mass density, 338.15 K [kg/m3]	viscosity, 298.15 K [mPa·s]	viscosity, 308.15 K [mPa·s]	viscosity, 318.15 K [mPa·s]	viscosity, 328.15 K [mPa·s]	viscosity, 338.15 K [mPa·s]
x1 = 0.1	831.84	823.84	815.72	807.43	798.92	2.672	2.064	1.615	1.289	1.031
x1 = 0.2	858.24	850.01	841.64	833.15	824.46	2.782	2.145	1.689	1.339	1.081
x1 = 0.3	884.97	876.51	867.95	859.26	850.39	2.936	2.26	1.779	1.416	1.145
x1 = 0.4	912.03	903.36	894.6	885.74	876.73	3.091	2.374	1.863	1.488	1.207
x1 = 0.5	939.3	930.44	921.51	912.47	903.33	3.217	2.475	1.944	1.556	1.266
x1 = 0.6	966.97	957.92	948.81	939.61	930.34	3.319	2.558	2.016	1.62	1.324
x1 = 0.6987	994.72	985.5	976.22	966.86	957.46	3.386	2.616	2.079	1.671	1.37
x1 = 0.7996	1023.6	1014.15	1004.68	995.17	985.6	3.401	2.634	2.11	1.708	1.41
x1 = 0.9	1053	1043.31	1033.63	1023.94	1014.21	3.362	2.628	2.109	1.723	1.432
x1 = 1	1082.92	1072.97	1063.04	1053.12	1043.2	3.306	2.603	2.102	1.739	1.459

CCO [ethanol] + O=C(O)C1CC1
[2], x2 = 0
Settings	mass density [kg/m3]	viscosity [mPa·s]
298.15 K	785.44	1.097
308.15 K	776.78	0.908
318.15 K	767.94	0.756
328.15 K	758.92	0.634

CCCO [propan-1-ol]
[1]
Settings	mass density [kg/m3]	viscosity [mPa·s]
298.15 K	799.6	1.955
308.15 K	791.49	1.538
318.15 K	783.22	1.224
328.15 K	774.73	0.986
338.15 K	765.98	0.801

O=C(O)C1CC1 [cyclopropanecarboxylic acid] + CCCO
[2]
Settings	mass density, 298.15 K [kg/m3]	mass density, 308.15 K [kg/m3]	mass density, 318.15 K [kg/m3]	mass density, 328.15 K [kg/m3]	mass density, 338.15 K [kg/m3]	viscosity, 298.15 K [mPa·s]	viscosity, 308.15 K [mPa·s]	viscosity, 318.15 K [mPa·s]	viscosity, 328.15 K [mPa·s]	viscosity, 338.15 K [mPa·s]
x1 = 0.1	832.12	823.73	815.19	806.46	797.48	2.118	1.667	1.325	1.068	0.87
x1 = 0.2	863.75	855.12	846.35	837.42	828.26	2.33	1.833	1.451	1.169	0.953
x1 = 0.3	894.25	885.41	876.46	867.36	858.07	2.568	2.002	1.583	1.276	1.041
x1 = 0.4138	927.62	918.58	909.45	900.17	890.75	2.82	2.19	1.733	1.396	1.141
x1 = 0.5001	952.13	942.95	933.7	924.34	914.85	2.988	2.317	1.834	1.481	1.211
x1 = 0.6	979.77	970.45	961.07	951.61	942.03	3.14	2.437	1.929	1.56	1.282
x1 = 0.7	1006.34	996.88	987.37	977.81	968.16	3.235	2.517	2.002	1.626	1.342
x1 = 0.8	1032.24	1022.8	–	1003.51	993.78	3.299	2.574	2.06	1.678	1.392
x1 = 0.9	1057.82	1048.15	1038.38	1028.6	1018.78	3.316	2.617	2.092	1.713	1.429
x1 = 1	1082.92	1072.97	1063.04	1053.12	1043.2	3.306	2.603	2.102	1.739	1.459

CCCCO [butan-1-ol] + O=C(O)C1CC1
[2], x2 = 0
Settings	mass density [kg/m3]	viscosity [mPa·s]
298.15 K	805.8	2.588
308.15 K	798.08	1.991
318.15 K	790.22	1.555
328.15 K	782.17	1.228
338.15 K	773.88	0.981

CO [methanol] + O=C(O)C1CC1
[2], x2 = 0
Settings	mass density [kg/m3]	viscosity [mPa·s]
298.15 K	787.01	0.556
308.15 K	777.54	0.484
318.15 K	767.98	0.424
328.15 K	758.28	0.372

CCO [ethanol]
[1]
Settings	mass density [kg/m3]	viscosity [mPa·s]
298.15 K	785.44	1.097
308.15 K	776.78	0.908
318.15 K	767.94	0.756
328.15 K	758.92	0.634

O=C(O)C1CC1 [cyclopropanecarboxylic acid] + CCO
[2]
Settings	mass density, 298.15 K [kg/m3]	mass density, 308.15 K [kg/m3]	mass density, 318.15 K [kg/m3]	mass density, 328.15 K [kg/m3]	viscosity, 298.15 K [mPa·s]	viscosity, 308.15 K [mPa·s]	viscosity, 318.15 K [mPa·s]	viscosity, 328.15 K [mPa·s]
x1 = 0.0787	820.26	811.57	802.61	793.34	1.272	1.043	0.865	0.723
x1 = 0.161	853.87	844.96	835.92	826.69	1.469	1.201	0.99	0.825
x1 = 0.2475	886.51	877.38	868.1	858.68	1.711	1.388	1.136	0.947
x1 = 0.3384	917.74	908.48	899.1	889.59	1.985	1.596	1.299	1.073
x1 = 0.4341	947.8	938.44	928.98	919.39	2.279	1.814	1.47	1.208
x1 = 0.535	976.75	967.28	957.74	948.09	2.562	2.029	1.636	1.342
x1 = 0.6415	1004.67	995.1	985.47	975.77	2.818	2.225	1.789	1.467
x1 = 0.7542	1031.56	1021.89	1012.17	1002.41	3.035	2.391	1.895	1.557
x1 = 0.8734	1057.73	1047.94	1038.12	1028.3	3.204	2.532	2.024	1.674
x1 = 1	1082.92	1072.97	1063.04	1053.12	3.306	2.603	2.102	1.739

CO [methanol]
[1]
Settings	mass density [kg/m3]	viscosity [mPa·s]
298.15 K	787.01	0.556
308.15 K	777.54	0.484
318.15 K	767.98	0.424
328.15 K	758.28	0.372
